From ChEMBL document CHEMBL4665826, “Design, synthesis and biological evaluation of novel heptamethine cyanine dye-erlotinib conjugates as antitumor agents” (Bioorg Med Chem Lett, 2020) come the findings set out here.

Experiment [1] relates to A549. The experiment is described as follows: Potency index, ratio of erlotinib IC50 to test compound IC50 for antiproliferative activity against human A549 cells assessed as reduction in cell growth by MTT assay. It counts as functional. (Formazan colour is commonly taken as a measure of viable cells.)
In experiment [2] the target is T1, Epidermal growth factor receptor (Homo sapiens, UniProt P00533). The experiment is described as follows: Inhibition of EGFR in human A549 cells measured after 30 hrs by ELISA. It counts as cell-based. A general note: In an ELISA, binding on a coated surface is turned into a signal by an enzyme label.
T1 sequence (P00533 whole entry): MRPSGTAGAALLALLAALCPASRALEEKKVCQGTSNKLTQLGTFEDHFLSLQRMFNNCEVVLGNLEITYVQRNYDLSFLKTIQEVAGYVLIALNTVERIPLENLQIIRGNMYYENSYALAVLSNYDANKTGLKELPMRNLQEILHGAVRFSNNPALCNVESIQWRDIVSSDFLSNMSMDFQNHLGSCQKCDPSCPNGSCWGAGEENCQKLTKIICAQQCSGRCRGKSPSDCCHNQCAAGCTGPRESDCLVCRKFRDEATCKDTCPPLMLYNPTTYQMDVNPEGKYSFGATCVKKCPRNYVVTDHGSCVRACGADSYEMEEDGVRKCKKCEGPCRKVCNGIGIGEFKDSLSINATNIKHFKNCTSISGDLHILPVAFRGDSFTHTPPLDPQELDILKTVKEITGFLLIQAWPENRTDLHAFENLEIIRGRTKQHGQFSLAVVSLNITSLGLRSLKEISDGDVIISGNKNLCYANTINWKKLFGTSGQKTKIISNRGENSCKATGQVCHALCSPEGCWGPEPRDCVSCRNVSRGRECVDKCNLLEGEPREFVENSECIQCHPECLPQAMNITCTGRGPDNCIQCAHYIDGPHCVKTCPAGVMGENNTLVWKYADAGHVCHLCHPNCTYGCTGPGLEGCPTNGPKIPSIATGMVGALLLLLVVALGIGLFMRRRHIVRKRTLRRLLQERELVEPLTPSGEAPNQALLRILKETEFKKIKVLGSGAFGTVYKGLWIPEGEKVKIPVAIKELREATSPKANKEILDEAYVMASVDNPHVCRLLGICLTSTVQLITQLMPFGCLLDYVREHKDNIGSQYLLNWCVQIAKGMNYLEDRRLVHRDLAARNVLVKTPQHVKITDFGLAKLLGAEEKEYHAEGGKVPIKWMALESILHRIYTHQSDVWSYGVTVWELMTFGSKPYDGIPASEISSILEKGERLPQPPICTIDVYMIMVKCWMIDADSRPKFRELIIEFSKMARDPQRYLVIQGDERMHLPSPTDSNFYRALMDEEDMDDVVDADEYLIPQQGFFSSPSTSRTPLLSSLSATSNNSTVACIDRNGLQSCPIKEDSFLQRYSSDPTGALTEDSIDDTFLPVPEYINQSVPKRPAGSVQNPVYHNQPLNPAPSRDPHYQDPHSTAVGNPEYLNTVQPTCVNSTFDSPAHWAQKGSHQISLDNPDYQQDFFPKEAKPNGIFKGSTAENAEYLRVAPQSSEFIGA
For a further experiment, the system named is MCF-10A. The experiment is described as follows: Cytotoxicity against human MCF-10A cells assessed as reduction in cell growth by MTT assay. It counts as cell-based.
A further experiment concerns MDA-MB-231. The experiment is described as follows: Antiproliferative activity against human MDA-MB-231 cells assessed as reduction in cell growth by MTT assay. It counts as functional, cell-based.
The test system of experiment [3] is A549. The experiment is described as follows: Antiproliferative activity against human A549 cells assessed as reduction in cell growth by MTT assay. It counts as functional, cell-based.
Experiment [4] deals with T1, Epidermal growth factor receptor. The experiment is described as follows: Potency index, ratio of erlotinib IC50 to test compound IC50 for EGFR in human A549 cells measured after 30 hrs by ELISA. It counts as cell-based.
In the next experiment the test system is NCI-H1299. The experiment is described as follows: Antiproliferative activity against human NCI-H1299 cells assessed as reduction in cell growth by MTT assay. It counts as functional, cell-based.
Another experiment relates to NCI-H460. The experiment is described as follows: Antiproliferative activity against human NCI-H460 cells assessed as reduction in cell growth by MTT assay. It counts as functional, cell-based.

pIC50: −log10 of the molar value. Some results are limits rather than exact numbers.

Turning to `C#Cc1cccc(Nc2ncnc3cc(OCCOC)c(OCCOC(=O)CCCCC[N+]4=C(/C=C/C=C/C=C/C=C5/N(CCCC)c6ccc(OC)cc6C5(C)C)C(C)(C)c5cc(C(F)(F)F)ccc54)cc23)c1.[Br-]`, the “Ratio IC50” value (with A549 [1]; in experiment [4]) was 14 each time. For the same molecule, the pIC50 in experiment [2] was 6.91; in the experiment on MCF-10A, 4.41; in the experiment on MDA-MB-231, 6.51; in the experiment on A549 [3] it was 6.75; in the experiment with NCI-H1299 it was 7.10; with NCI-H460 it was 6.52.

For the molecule `C#Cc1cccc(Nc2ncnc3cc(OCCOC)c(OCCOC(=O)CCCCC[N+]4=C(/C=C/C=C/C=C/C=C5/N(CCCC)c6ccccc6C5(C)C)C(C)(C)c5cc(OC)ccc54)cc23)c1`, the pIC50 is over 6.90 with MDA-MB-231, 5.40 with A549 [3], 6.17 with NCI-H1299 and 5.61 with NCI-H460.

`C#Cc1cccc(Nc2ncnc3cc(OCCOC)c(OCCOC(=O)CCCCC[N+]4=C(/C=C/C5=C(Cl)C(=C/C=C6/N(CCCCCC(=O)O)c7ccc(C)cc7C6(C)C)/CCC5)C(C)(C)c5cc(C)ccc54)cc23)c1`: the pIC50 was 5.47 with MDA-MB-231, 5.62 with A549 [3], 5.81 with NCI-H1299 and 6.09 with NCI-H460.

As to `C#Cc1cccc(Nc2ncnc3cc(OCCOC)c(OCCOC(=O)CCCCC[N+]4=C(/C=C/C=C/C=C/C=C5/N(CCCC)c6ccc(OC)cc6C5(C)C)C(C)(C)c5cc(C)ccc54)cc23)c1`, the negative logarithm of the IC50 (pIC50) with MDA-MB-231 is 6.27; in the experiment with A549 [3] it was 6.17; in the experiment on NCI-H1299, 5.87; with NCI-H460 it was 6.08.

`C#Cc1cccc(Nc2ncnc3cc(OCCOC)c(OCCOC(=O)CCCCC[N+]4=C(/C=C/C=C/C=C/C=C5/N(CCCC)c6ccccc6C5(C)C)C(C)(C)c5cc(C(F)(F)F)ccc54)cc23)c1`: the negative logarithm of the IC50 (pIC50) in experiment [2] is 6.69; with MDA-MB-231, 6.45; in the experiment with A549 [3], 6.64; in the experiment with NCI-H1299, 6.27; with NCI-H460, 6.09.

Take `C#Cc1cccc(Nc2ncnc3cc(OCCOC)c(OCCOC(=O)CCCCC[N+]4=C(/C=C/C=C/C=C/C=C5/N(CCCC)c6ccccc6C5(C)C)C(C)(C)c5cc(C)ccc54)cc23)c1`: the pIC50 with MDA-MB-231 is 6.50; with A549 [3] it was 5.68; in the experiment with NCI-H1299 it was 5.76; in the experiment with NCI-H460, 5.67.

As to `C#Cc1cccc(Nc2ncnc3cc(OCCOC)c(OCCOC(=O)CCCCC[N+]4=C(/C=C/C=C/C=C/C=C5/N(CCCC)c6ccccc6C5(C)C)C(C)(C)c5cc(Br)ccc54)cc23)c1`, the pIC50 with MDA-MB-231 is over 6.90; in the experiment on A549 [3], 6.24; with NCI-H1299 it was 6.16; with NCI-H460, 6.18.

Turning to `C#Cc1cccc(Nc2ncnc3cc(OCCOC)c(OCCOC(=O)CCCCC[N+]4=C(/C=C/C5=C(Cl)C(=C/C=C6/N(CCCCCC(=O)O)c7ccc(Br)cc7C6(C)C)/CCC5)C(C)(C)c5cc(Br)ccc54)cc23)c1`, the pIC50 in the experiment on MDA-MB-231 was 6.22; in the experiment with A549 [3], 5.13; with NCI-H1299, 4.75; with NCI-H460 it was 4.86.

On to `C#Cc1cccc(Nc2ncnc3cc(OCCOC)c(OCCOC(=O)CCCCC[N+]4=C(/C=C/C=C/C=C/C=C5/N(CCCCCC(=O)O)c6ccccc6C5(C)C)C(C)(C)c5ccccc54)cc23)c1`, for which the negative logarithm of the IC50 (pIC50) with MDA-MB-231 was 5.79; with A549 [3], 5.95; with NCI-H1299 it was 5.29; in the experiment on NCI-H460 it was 5.14.

As to `CC(=O)O[C@H]1C(=O)[C@@]2(C)[C@H]([C@H](OC(=O)c3ccccc3)[C@]3(O)C[C@H](OC(=O)[C@H](O)[C@@H](NC(=O)c4ccccc4)c4ccccc4)C(C)=C1C3(C)C)[C@]1(OC(C)=O)CO[C@@H]1C[C@@H]2O` [PACLITAXEL], the pIC50 is over 7.60 in the experiment on MDA-MB-231, over 9.00 with A549 [3], 8.30 in the experiment on NCI-H1299 and over 9.00 in the experiment with NCI-H460.

On to `C#Cc1cccc(Nc2ncnc3cc(OCCOC)c(OCCOC(=O)CCCCC[N+]4=C(/C=C/C=C/C=C/C=C5/N(CCCCCC(=O)O)c6ccc(OC)cc6C5(C)C)C(C)(C)c5cc(OC)ccc54)cc23)c1`, for which the negative-log IC50 (pIC50) with MDA-MB-231 is 5.48; in the experiment on A549 [3], 5.59; with NCI-H1299, 4.83; in the experiment on NCI-H460, 5.29.

Take `C#Cc1cccc(Nc2ncnc3cc(OCCOC)c(OCCOC(=O)CCCCC[N+]4=C(/C=C/C=C/C=C/C=C5/N(CCCC)c6ccc(OC)cc6C5(C)C)C(C)(C)c5ccccc54)cc23)c1`: the negative-log IC50 (pIC50) with MDA-MB-231 is 6.51; in the experiment on A549 [3], 6.41; in the experiment on NCI-H1299, 6.42; with NCI-H460 it was 6.26.

For `C#Cc1cccc(Nc2ncnc3cc(OCCOC)c(OCCOC(=O)CCCCC[N+]4=C(/C=C/C=C/C=C/C=C5/N(CCCCCC(=O)O)c6ccc(C)cc6C5(C)C)C(C)(C)c5cc(C)ccc54)cc23)c1`, the negative logarithm of the IC50 (pIC50) is 5.21 in the experiment on MDA-MB-231, 5.68 with A549 [3], 5.38 with NCI-H1299 and 5.25 in the experiment on NCI-H460.

Consider `C#Cc1cccc(Nc2ncnc3cc(OCCOC)c(OCCOC(=O)CCCCC[N+]4=C(/C=C/C=C/C=C/C=C5/N(CCCC)c6ccc(OC)cc6C5(C)C)C(C)(C)c5cc(OC)ccc54)cc23)c1`, for which the negative logarithm of the IC50 (pIC50) in the experiment on MDA-MB-231 was over 6.90; with A549 [3], 6.34; with NCI-H1299 it was 6.96; with NCI-H460, 6.66.

Regarding `C#Cc1cccc(Nc2ncnc3cc(OCCOC)c(OCCOC(=O)CCCCC[N+]4=C(/C=C/C5=C(Cl)C(=C/C=C6/N(CCCCCC(=O)O)c7ccc(OC)cc7C6(C)C)/CCC5)C(C)(C)c5cc(OC)ccc54)cc23)c1`, the negative-log IC50 (pIC50) in the experiment on MDA-MB-231 was 5.37; in the experiment with A549 [3] it was 5.71; in the experiment with NCI-H1299, 5.66; with NCI-H460 it was 5.57.

As for `C#Cc1cccc(Nc2ncnc3cc(OCCOC)c(OCCOC(=O)CCCCC[N+]4=C(/C=C/C=C/C=C/C=C5/N(CCCC)c6ccccc6C5(C)C)C(C)(C)c5ccccc54)cc23)c1`, the negative-log IC50 (pIC50) is 4.48 in the experiment with MCF-10A; over 6.90 in the experiment on MDA-MB-231; 6.20 in the experiment with A549 [3]; 5.70 in the experiment on NCI-H1299; 6.24 in the experiment on NCI-H460.

`C#Cc1cccc(Nc2ncnc3cc(OCCOC)c(OCCOC(=O)CCCCC[N+]4=C(/C=C/C5=C(Cl)C(=C/C=C6/N(CCCCCC(=O)O)c7ccccc7C6(C)C)/CCC5)C(C)(C)c5ccccc54)cc23)c1`: the negative logarithm of the IC50 (pIC50) is 5.37 with MDA-MB-231, 5.04 in the experiment with A549 [3], 5.16 in the experiment with NCI-H1299 and 4.82 in the experiment on NCI-H460.

In the case of `C#Cc1cccc(Nc2ncnc3cc(OCCOC)c(OCCOC(=O)CCCCC[N+]4=C(/C=C/C=C/C=C/C=C5/N(CCCC)c6ccc(OC)cc6C5(C)C)C(C)(C)c5cc(Br)ccc54)cc23)c1`, the negative logarithm of the IC50 (pIC50) with MDA-MB-231 was 6.08; in the experiment with A549 [3], 5.68; in the experiment with NCI-H1299, 6.61; in the experiment with NCI-H460 it was 6.07.

As a reminder, the pIC50 is −log10 of the IC50, conventionally taken in molar units.
